Test results published in the CheMixHub drug solubility set.

Experiment: xn = mol fraction of the nth substance listed, in the solute-free solvent

O=[N+]([O-])c1cc[nH]n1 + CC(C)=O + O
solubility (g/100 g solution)
Conditions | 283.15 K | 288.15 K | 293.15 K | 298.15 K | 303.15 K | 308.15 K | 313.15 K | 318.15 K | 323.15 K
x2 = 0.03333 | 0.251 | 0.321 | 0.373 | 0.471 | 0.552 | 0.72 | 0.876 | 1.07 | 1.32
x2 = 0.07199 | 0.297 | 0.351 | 0.41 | 0.49 | 0.576 | 0.71 | 0.865 | 1.05 | 1.29
x2 = 0.1174 | 0.313 | 0.362 | 0.422 | 0.501 | 0.594 | 0.708 | 0.855 | 1.05 | 1.29
x2 = 0.1714 | 0.322 | 0.371 | 0.43 | 0.507 | 0.597 | 0.705 | 0.853 | 1.05 | 1.24
x2 = 0.2368 | 0.324 | 0.369 | 0.426 | 0.491 | 0.573 | 0.683 | 0.813 | 0.984 | 1.17
x2 = 0.3176 | 0.319 | 0.37 | 0.422 | 0.487 | 0.564 | 0.662 | 0.79 | 0.932 | 1.11
x2 = 0.42 | 0.324 | 0.366 | 0.414 | 0.476 | 0.543 | 0.637 | 0.749 | 0.871 | 0.999
x2 = 0.5538 | 0.306 | 0.354 | 0.398 | 0.457 | 0.527 | 0.614 | 0.722 | 0.873 | 1.02
x2 = 0.7363 | 0.299 | 0.349 | 0.397 | 0.461 | 0.515 | 0.576 | 0.678 | 0.794 | 0.916

COC(=O)C1=C(C)NC(C)=C(C(=O)OCC(C)C)C1c1ccccc1[N+](=O)[O-] (stereo not drawn) + CCOC(C)=O + CC(C)O
solubility (g/100 g solution)
Conditions | 278.15 K | 283.15 K | 288.15 K | 293.15 K | 298.15 K | 303.15 K | 308.15 K | 313.15 K | 318.15 K
x2 = 0.07045 | 3.52 | 4.21 | 5.01 | 5.86 | 6.83 | 7.91 | 9.07 | 10.5 | 11.9
x2 = 0.1457 | 4.03 | 4.67 | 5.54 | 6.46 | 7.55 | 8.74 | 9.96 | 11.4 | 12.9
x2 = 0.2262 | 4.4 | 5.19 | 6.09 | 7.07 | 8.21 | 9.47 | 10.8 | 12.3 | 13.9
x2 = 0.3126 | 4.88 | 5.76 | 6.68 | 7.75 | 8.91 | 10.2 | 11.5 | 13 | 14.7
x2 = 0.4055 | 5.37 | 6.28 | 7.26 | 8.31 | 9.53 | 10.8 | 12.3 | 13.8 | 15.4
x2 = 0.5057 | 5.77 | 6.69 | 7.7 | 8.82 | 10.1 | 11.4 | 12.9 | 14.5 | 16.1
x2 = 0.6141 | 6.12 | 7.09 | 8.13 | 9.25 | 10.6 | 12 | 13.5 | 15.1 | 16.8
x2 = 0.7318 | 6.4 | 7.37 | 8.53 | 9.72 | 11 | 12.5 | 14.1 | 15.7 | 17.5
x2 = 0.8599 | 6.59 | 7.63 | 8.83 | 10 | 11.4 | 12.8 | 14.3 | 16 | 17.8

O=[N+]([O-])c1cc[nH]n1 + CCO + O
solubility (g/100 g solution)
Conditions | 283.15 K | 288.15 K | 293.15 K | 298.15 K | 303.15 K | 308.15 K | 313.15 K | 318.15 K | 323.15 K
x2 = 0.04165 | 0.265 | 0.347 | 0.44 | 0.528 | 0.709 | 0.854 | 1.16 | 1.49 | 1.89
x2 = 0.08908 | 0.319 | 0.385 | 0.478 | 0.581 | 0.718 | 0.87 | 1.15 | 1.44 | 1.83
x2 = 0.1436 | 0.409 | 0.521 | 0.689 | 0.942 | 1.16 | 1.49 | 1.89 | 2.41 | 3.08
x2 = 0.2068 | 0.482 | 0.6 | 0.75 | 0.956 | 1.18 | 1.48 | 1.87 | 2.34 | 2.97
x2 = 0.2812 | 0.53 | 0.639 | 0.777 | 0.962 | 1.16 | 1.46 | 1.8 | 2.24 | 2.82
x2 = 0.3698 | 1 | 1.2 | 1.45 | 1.71 | 2.08 | 2.5 | 3.05 | 3.86 | 4.83
x2 = 0.4772 | 1.69 | 1.98 | 2.32 | 2.72 | 3.26 | 3.87 | 4.68 | 5.83 | 7.1
x2 = 0.6101 | 2.68 | 3.06 | 3.52 | 4.09 | 4.83 | 5.64 | 6.66 | 8.11 | 9.68
x2 = 0.7788 | 3.98 | 4.51 | 5.09 | 5.8 | 6.58 | 7.79 | 9.11 | 10.7 | 12.4
